“And” between values parts separate entries of the source, which are not always exact repeats. Identical values can stand only once.
How the values were obtained:
Type in all cases: cell-based, human
[1] = test system: TSLP mRNA levels in NHBE cells; test: TSLP mRNA real-time PCR (qPCR) in NHBE cells; parameters: TSLP mRNA upregulation (% versus control) / % Inhibition of mRNA: dose or concentration left out as unconfirmed
[2] = test system: TSLP production in NHBE cells; test: TSLP HTRF assay (TSLP production in poly I:C / IL-4 stimulated NHBE cells); conditions: individual values
[3] = test system: TSLP production in NHBE cells; test: as above; conditions: 4 μM; NHBE donor #1; average ± SD
Description: For dose response curves determinations, stocks of test compounds at a concentration of 1.33x10^-3 M in DMSO were sequentially diluted at 1:4 dilution steps before further 1/50 dilution in BEBM medium containing 1x ITS and 0.1% BSA. For the highest 4 μM concentration test compounds were resuspended in DMSO at a concentration of 2.5x10^-3 M and diluted 1/25 in BEBM medium containing 1x ITS and 0.1% BSA before adding 1 μl to the wells containing the cells.
All subsequent steps were automated using a Sciclone® G3 workstation (Perkin Elmer) with a Twister™ II robot (Perkin Elmer). […] 1 μl of test compound solution prepared at 25x concentration was added to the wells containing NHBE cells. The plates were then incubated during 90 minutes at 37°C, 5% CO2, 90% humidity before adding poly I:C (Invivogen HMW Tirl-pic-5) and human IL-4 (Peprotech 200–04) stimulus in 4 μl of BEBM medium containing 1x ITS, 0.1% BSA and 0.1% DMSO using a Multidrop™. […] Cells were then incubated for 24h in the presence of test compounds and stimulus at 37°C, 5% CO2 and 90% humidity conditions. After the 24h incubation period the plates were transferred to a CyBi®-Well platform (CyBio AG) to collect 10 μl of the supernatants which were transferred to a new plate. TSLP levels in the supernatant were determined using a homogeneous Time-Resolved Fluorescence (HTRF) assay custom developed by Cisbio. The assay was based in the use of a donor dye (europium cryptate) coupled to a monoclonal anti-TSLP antibody and an acceptor dye (d2) coupled to a second polyclonal anti-TSLP antibody. […] 10 μl of the resulting solution was then used to determine TSLP levels as described above.
The standard curve was built with eight points prepared in ITS/BSA in BEBM medium without supplements, starting at 700 pg/ml and diluted 1:2, with medium alone being zero TSLP. Fitting model corresponded to equation 100 of Excel fit software. Data from the primary phenotypic screen was visualized using Vortex (Dotmatics). […] For compound selection the maximum inhibition of the two individual duplicate values was taken into account. Dose response confirmation was performed at single point in the 2 donors tested. 9 point curves were run starting at 4 μM concentration by doing serial 1:4 dilutions in cells derived from both donors.

Question: What does the source list for CC(C)N(C(=O)CN1N=C(c2ccccc2)Cn2c(cc3ccccc32)C1=O)C(C)C [compound 1]?
Answer: TSLP mRNA upregulation (% versus control at 4 μM) ([1]; 4 μM, NHBE donor #1, average ± SD): 452 ± 103%; TSLP mRNA upregulation (% versus control) ([1]; individual values): 525.82% and 378.87%; TSLP protein upregulation (% versus control at 4 µM) [2]: 138.531% and 75.145% and 206.844% and 140.02% and 231.867% and 228.515%; TSLP protein upregulation (% versus control at 4 µM) [3]: 170 ± 62%

Reference: paper PMC5761851, “Application of a phenotypic drug discovery strategy to identify biological and chemical starting points for inhibition of TSLP production in lung epithelial cells” (PLoS ONE, 2018)
